“And” between values parts separate entries of the source, which are not always exact repeats. Equal entries are not always repeated.
Key:
[1] = Flow time and flowability, conical flow funnel, 2.9.16 Method Ph. Eur.; format: physicochemical; details: 100 g, time for whole sample to flow out of the funnel, two samples each; hydrochloride
Protocol: The flowability of granular magnesium L-aspartate hydrochloride prepared by the process according to the invention was compared with a finely powdered magnesium L-aspartate hydrochloride prepared by a standard process (disclosed in DE 32 38 118 A1). The test arrangement consisted of a conical flow funnel with a height of 22.5 cm, an upper internal diameter of 7.3 cm and a lower internal diameter of 8.2 mm. The test was carried out by the 2.9.16 Method, Ph. Eur., 4th edition, main volume 2002, as follows. 100 g portions of material were put into the funnel. Opening of the funnel orifice was followed by assessment of the flowability, and the time for the whole sample to flow out of the funnel was determined. Two samples were measured in each case.

[2] = Dissolving properties, time until dissolution complete in water; format: physicochemical; details: 10 g in 250 ml of water, stirring 20 revolutions per min; hydrochloride
Protocol: The dissolving properties of granular magnesium L-aspartate hydrochloride prepared by the process according to the invention were compared with a finely powdered magnesium L-aspartate hydrochloride prepared by a standard process (disclosed in DE 32 38 118 A1). The test arrangement consisted of a glass beaker with stirring bar which was adjusted to 20 revolutions per min. 250 ml of water were introduced and then 10 g of test material were added with the stirrer motor running. The time until dissolution was complete was measured.

[3] = Particle size distribution, comparative sieve analysis (Hosokawa Alpine air jet sieve); format: physicochemical
From the text: The particle size distribution of granular magnesium L-aspartate hydrochloride prepared by the process according to the invention was compared with a finely powdered magnesium L-aspartate hydrochloride prepared by a standard process (disclosed in DE 32 38 118 A1).

[4] = Water uptake capacity or hygroscopicity, desiccator at 75% relative humidity; format: physicochemical; details: for percentage increase in weight: hydrochloride
From the text: The hygroscopicity of granular magnesium L-aspartate hydrochloride prepared by the process according to the invention was compared with a finely powdered magnesium L-aspartate hydrochloride prepared by a standard process (disclosed in DE 32 38 118 A1). The test arrangement consisted of a desiccator which was adjusted to a relative humidity of 75% with a saturated sodium chloride solution. In each case a defined amount of sample was weighed out and the sample dish was placed in the desiccator. The percentage increase in weight of the weighed amount was determined after 2, 4, 5 and 20 hours.

[5] = background statement; cited from earlier work
[6] = Particle size distribution of the final product of Example 1; format: physicochemical
[7] = Apparent volume of the final product; format: physicochemical
Protocol: A product with a very favourable apparent volume can be achieved in the process according to the invention for preparing the granular hydrohalide of the complex compound of relevance here. The apparent volume [volume of the uncompressed product (ml)/100 g of the product] is preferably in a range from 150 to 180 ml/100 g, with a particularly preferred apparent volume being about 170 ml/100 g.

[8] = listed as granular magnesium L-aspartate hydrochloride, hydrochloride
[9] = sieve 63.0 μm, listed as process according to the present invention, hydrochloride
[10] = sieve 90.0 μm, listed as process according to the present invention, hydrochloride
[11] = sieve 150.0 μm, listed as process according to the present invention, hydrochloride
[12] = listed as finely powdered magnesium L-aspartate hydrochloride, hydrochloride
[13] = sieve 63.0 μm, listed as standard process, hydrochloride
[14] = sieve 90.0 μm, listed as standard process, hydrochloride
[15] = sieve 150.0 μm, listed as standard process, hydrochloride

Cl.N[C@@H](CC(=O)[O-])C(=O)[O-].[Mg+2] [According to the invention, magnesium L-aspartate hydrochloride]
Flow time [1]: 10 s
Dissolving time [2]: 3 min and 2 min
average particle size (d50) [3, 8]: 250.8 μm
maximum particle size (dmax) [3, 8]: 448.7 μm
minimum particle size (dmin) [3, 8]: 48.0 μm
1 − Q ([3]; sieve 0 μm (receiver)): 100.0 %-R
Q ([3]; sieve 0 μm (receiver)): 0.0 %-D
q ([3]; sieve 0 μm (receiver), listed as process according to the present invention, hydrochloride): 0.2 %-B
1 − Q [3, 9]: 99.8 %-R
Q [3, 9]: 0.2 %-D
q [3, 9]: 0.6 %-B
1 − Q [3, 10]: 99.2 %-R
Q [3, 10]: 0.8 %-D
q [3, 10]: 10.2 %-B
1 − Q [3, 11]: 89.0 %-R
Q [3, 11]: 11.0 %-D
q [3, 11]: 61.4 %-B
1 − Q ([3]; sieve 212.0 μm): 27.6 %-R
Q ([3]; sieve 212.0 μm): 72.4 %-D
q ([3]; sieve 212.0 μm): 18.4 %-B
1 − Q ([3]; sieve 315.0 μm): 9.2 %-R
Q ([3]; sieve 315.0 μm): 90.8 %-D
q ([3]; sieve 315.0 μm): 5.4 %-B
1 − Q ([3]; sieve 400.0 μm): 3.8 %-R
Q ([3]; sieve 400.0 μm): 96.2 %-D
q ([3]; sieve 400.0 μm): 3.0 %-B
1 − Q ([3]; sieve 500.0 μm): 0.8 %-R
Q ([3]; sieve 500.0 μm): 99.2 %-D
q ([3]; sieve 500.0 μm): 0.8 %-B
hygroscopicity compared with a finely powdered product according to the prior art ([4]; 2 to 20 hours): distinctly reduced
percentage increase in weight ([4]; testing time 2 h): 0.18% and 0.16%
percentage increase in weight ([4]; testing time 4 h): 0.33% and 0.30%
percentage increase in weight ([4]; testing time 5 h): 0.43% and 0.40%
percentage increase in weight ([4]; testing time 20 h): 1.74% and 1.63%

Cl.N[C@@H](CC(=O)[O-])C(=O)[O-].[Mg+2] [Standard, magnesium L-aspartate hydrochloride, reference compound]
Dissolving time [2]: 7 min
average particle size (d50) [3, 12]: 54.9 μm
maximum particle size (dmax) [3, 12]: 260.0 μm
minimum particle size (dmin) [3, 12]: 0.7 μm
1 − Q ([3]; sieve 0 μm (receiver)): 100.0 %-R
Q ([3]; sieve 0 μm (receiver)): 0.0 %-D
q ([3]; sieve 0 μm (receiver), listed as standard process, hydrochloride): 55.4 %-B
1 − Q [3, 13]: 44.6 %-R
Q [3, 13]: 55.4 %-D
q [3, 13]: 23.8 %-B
1 − Q [3, 14]: 20.8 %-R
Q [3, 14]: 79.2 %-D
q [3, 14]: 15.6 %-B
1 − Q [3, 15]: 5.2 %-R
Q [3, 15]: 94.8 %-D
q [3, 15]: 5.2 %-B
percentage increase in weight ([4]; testing time 2 h): 0.35% and 0.30%
percentage increase in weight ([4]; testing time 4 h): 0.63% and 0.55%
percentage increase in weight ([4]; testing time 5 h): 0.72% and 0.71%
percentage increase in weight ([4]; testing time 20 h): 3.06% and 2.70%

Cl.N[C@@H](CC(=O)[O-])C(=O)[O-].[Mg+2] [Magnesium L-aspartate hydrochloride]
humidity at which the substance liquefies [5]: more than 50%

Cl.N[C@@H](CC(=O)[O-])C(=O)[O-].[Mg+2] [Example 1, magnesium L-aspartate hydrochloride]
particle size distribution, fraction of particles ([6]; 100-140 μm): 19.48%
particle size distribution, fraction of particles ([6]; 140-250 μm): 57.84%
particle size distribution, fraction of particles ([6]; 250-315 μm): 10.81%
particle size distribution, fraction of particles ([6]; 315-400 μm): 4.78%
particle size distribution, fraction of particles ([6]; 400-500 μm): 0.90%
particle size distribution, fraction of particles ([6]; <100 μm): 6.19%
apparent volume [volume of the uncompressed product (ml)/100 g of the product] [7]: 170 ml/100 g

Reference: patent US7523563B2, “Process for preparing certain hydrohalide metal complex compounds having a specific coarse structure” (Verla-Pharm Arzneimittelfabrik Apotheker H.J.v. Ehrlich …, priority 2005, dated 2009)
